Source: ChEMBL document CHEMBL4610114, “Fragment-Based Discovery of Pyrazolopyridones as JAK1 Inhibitors with Excellent Subtype Selectivity” (J Med Chem, 2020)
≈ marks a conversion by molar mass, not a printed value.

How the values were obtained:
Cytochrome P450 2C9 = Cytochrome P450 2C9 (Homo sapiens, UniProt P11712); experiment: Inhibition of CYP2C9 (unknown origin) up to 25 uM; format: ADME
[1] = Half life in rat at […], po or 0.06 mg/kg, iv; format: ADME, organism-based; conditions: in vivo
[2] = Protein binding in rat plasma assessed as unbound fraction; format: ADME, cell-free
in vitro [3] = conditions: rat, hepatocytes
Description: Apparent intrinsic clearance in rat hepatocytes

[4] = Clearance in rat at […], po or 0.06 mg/kg, iv; format: ADME, organism-based; conditions: in vivo
in vitro [5] = conditions: human, liver microsomes
Description: Apparent intrinsic clearance in human liver microsomes

[6] = target: Non-receptor tyrosine-protein kinase TYK2 (Homo sapiens, UniProt P29597)
Non-receptor tyrosine-protein kinase TYK2, sequence (P29597 whole entry): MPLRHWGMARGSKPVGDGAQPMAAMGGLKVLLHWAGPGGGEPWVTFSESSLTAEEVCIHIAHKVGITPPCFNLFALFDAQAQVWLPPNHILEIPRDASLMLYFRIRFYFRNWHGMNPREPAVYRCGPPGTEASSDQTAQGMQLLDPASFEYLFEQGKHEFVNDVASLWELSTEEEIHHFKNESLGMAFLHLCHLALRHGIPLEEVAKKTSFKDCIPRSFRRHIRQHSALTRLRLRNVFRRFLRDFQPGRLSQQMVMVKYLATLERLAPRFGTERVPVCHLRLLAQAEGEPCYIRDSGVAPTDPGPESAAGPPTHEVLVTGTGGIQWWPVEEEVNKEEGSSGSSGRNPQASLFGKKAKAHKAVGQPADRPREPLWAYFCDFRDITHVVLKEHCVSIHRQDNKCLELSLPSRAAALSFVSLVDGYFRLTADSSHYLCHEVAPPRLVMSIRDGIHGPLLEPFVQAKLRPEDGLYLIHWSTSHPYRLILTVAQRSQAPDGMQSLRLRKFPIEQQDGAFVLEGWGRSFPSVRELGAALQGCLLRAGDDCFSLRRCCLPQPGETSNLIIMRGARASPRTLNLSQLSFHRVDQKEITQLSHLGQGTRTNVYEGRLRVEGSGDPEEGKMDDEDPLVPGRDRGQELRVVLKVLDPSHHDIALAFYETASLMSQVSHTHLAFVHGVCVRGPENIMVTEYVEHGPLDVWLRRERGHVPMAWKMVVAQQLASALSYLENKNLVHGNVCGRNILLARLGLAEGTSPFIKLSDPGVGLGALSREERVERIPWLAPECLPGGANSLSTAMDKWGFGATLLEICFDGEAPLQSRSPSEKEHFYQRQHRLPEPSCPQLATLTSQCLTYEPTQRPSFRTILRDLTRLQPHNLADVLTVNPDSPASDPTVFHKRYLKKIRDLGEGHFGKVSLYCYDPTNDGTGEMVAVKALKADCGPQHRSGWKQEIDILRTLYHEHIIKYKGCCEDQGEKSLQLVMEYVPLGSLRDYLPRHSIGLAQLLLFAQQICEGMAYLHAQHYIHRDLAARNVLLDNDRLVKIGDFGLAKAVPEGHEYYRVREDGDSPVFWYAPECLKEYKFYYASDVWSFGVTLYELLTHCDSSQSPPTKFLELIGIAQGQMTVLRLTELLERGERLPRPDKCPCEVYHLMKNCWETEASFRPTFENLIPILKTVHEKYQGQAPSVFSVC

[7] = target: Voltage-gated inwardly rectifying potassium channel KCNH2 (Homo sapiens, UniProt Q12809); experiment: Binding affinity to human ERG at 30 uM
Cytochrome P450 2D6 = Cytochrome P450 2D6 (Homo sapiens, UniProt P10635); experiment: Inhibition of CYP2D6 (unknown origin) up to 25 uM; format: ADME
Cytochrome P450 2D6, sequence (P10635 whole entry): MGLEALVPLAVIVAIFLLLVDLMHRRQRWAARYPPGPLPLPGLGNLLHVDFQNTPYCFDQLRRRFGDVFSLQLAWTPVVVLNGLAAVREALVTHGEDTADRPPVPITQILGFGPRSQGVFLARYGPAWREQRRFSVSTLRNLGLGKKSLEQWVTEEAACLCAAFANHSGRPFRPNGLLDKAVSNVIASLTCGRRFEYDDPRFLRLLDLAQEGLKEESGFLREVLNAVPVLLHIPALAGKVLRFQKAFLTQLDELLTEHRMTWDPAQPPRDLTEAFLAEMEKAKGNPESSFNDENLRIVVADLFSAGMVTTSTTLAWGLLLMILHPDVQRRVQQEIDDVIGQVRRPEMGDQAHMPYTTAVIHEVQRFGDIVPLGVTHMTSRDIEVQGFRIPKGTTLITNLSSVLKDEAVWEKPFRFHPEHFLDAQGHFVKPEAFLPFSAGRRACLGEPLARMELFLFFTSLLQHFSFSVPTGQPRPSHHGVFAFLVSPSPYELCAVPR

[8] = target: T1, Tyrosine-protein kinase JAK2 (Homo sapiens, UniProt O60674)
T1 sequence (O60674 whole entry): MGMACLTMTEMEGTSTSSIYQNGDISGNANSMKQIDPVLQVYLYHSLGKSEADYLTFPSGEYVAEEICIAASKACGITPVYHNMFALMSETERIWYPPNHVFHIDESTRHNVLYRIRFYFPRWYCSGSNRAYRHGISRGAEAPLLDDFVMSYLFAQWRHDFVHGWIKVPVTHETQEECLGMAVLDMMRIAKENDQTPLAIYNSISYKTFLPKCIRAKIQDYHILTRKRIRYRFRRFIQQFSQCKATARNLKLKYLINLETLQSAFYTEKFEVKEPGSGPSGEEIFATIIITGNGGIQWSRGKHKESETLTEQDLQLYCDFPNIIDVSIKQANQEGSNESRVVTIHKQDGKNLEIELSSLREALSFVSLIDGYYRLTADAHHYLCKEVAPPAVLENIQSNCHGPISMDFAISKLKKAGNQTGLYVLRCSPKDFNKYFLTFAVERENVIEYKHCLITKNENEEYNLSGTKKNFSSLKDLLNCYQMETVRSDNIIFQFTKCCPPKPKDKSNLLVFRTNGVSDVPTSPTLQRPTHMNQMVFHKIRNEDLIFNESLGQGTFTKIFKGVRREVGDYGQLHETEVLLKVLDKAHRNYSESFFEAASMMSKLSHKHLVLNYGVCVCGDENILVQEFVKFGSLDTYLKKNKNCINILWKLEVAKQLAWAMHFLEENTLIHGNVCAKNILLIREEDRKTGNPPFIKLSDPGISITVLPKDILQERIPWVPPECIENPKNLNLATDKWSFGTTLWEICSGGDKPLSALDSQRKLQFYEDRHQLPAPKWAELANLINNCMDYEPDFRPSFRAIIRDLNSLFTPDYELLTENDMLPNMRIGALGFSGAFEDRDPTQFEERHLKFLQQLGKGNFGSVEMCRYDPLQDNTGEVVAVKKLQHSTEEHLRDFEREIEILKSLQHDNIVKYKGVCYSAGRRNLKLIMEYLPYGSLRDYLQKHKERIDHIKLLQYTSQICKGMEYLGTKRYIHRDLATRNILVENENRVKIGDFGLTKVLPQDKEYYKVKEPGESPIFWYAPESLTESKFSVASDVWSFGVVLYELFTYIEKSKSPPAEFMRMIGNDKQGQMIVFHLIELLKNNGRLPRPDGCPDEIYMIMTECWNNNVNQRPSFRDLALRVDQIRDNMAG

[9] = target: T2, Tyrosine-protein kinase JAK3 (Homo sapiens, UniProt P52333)
T2 sequence (P52333 whole entry): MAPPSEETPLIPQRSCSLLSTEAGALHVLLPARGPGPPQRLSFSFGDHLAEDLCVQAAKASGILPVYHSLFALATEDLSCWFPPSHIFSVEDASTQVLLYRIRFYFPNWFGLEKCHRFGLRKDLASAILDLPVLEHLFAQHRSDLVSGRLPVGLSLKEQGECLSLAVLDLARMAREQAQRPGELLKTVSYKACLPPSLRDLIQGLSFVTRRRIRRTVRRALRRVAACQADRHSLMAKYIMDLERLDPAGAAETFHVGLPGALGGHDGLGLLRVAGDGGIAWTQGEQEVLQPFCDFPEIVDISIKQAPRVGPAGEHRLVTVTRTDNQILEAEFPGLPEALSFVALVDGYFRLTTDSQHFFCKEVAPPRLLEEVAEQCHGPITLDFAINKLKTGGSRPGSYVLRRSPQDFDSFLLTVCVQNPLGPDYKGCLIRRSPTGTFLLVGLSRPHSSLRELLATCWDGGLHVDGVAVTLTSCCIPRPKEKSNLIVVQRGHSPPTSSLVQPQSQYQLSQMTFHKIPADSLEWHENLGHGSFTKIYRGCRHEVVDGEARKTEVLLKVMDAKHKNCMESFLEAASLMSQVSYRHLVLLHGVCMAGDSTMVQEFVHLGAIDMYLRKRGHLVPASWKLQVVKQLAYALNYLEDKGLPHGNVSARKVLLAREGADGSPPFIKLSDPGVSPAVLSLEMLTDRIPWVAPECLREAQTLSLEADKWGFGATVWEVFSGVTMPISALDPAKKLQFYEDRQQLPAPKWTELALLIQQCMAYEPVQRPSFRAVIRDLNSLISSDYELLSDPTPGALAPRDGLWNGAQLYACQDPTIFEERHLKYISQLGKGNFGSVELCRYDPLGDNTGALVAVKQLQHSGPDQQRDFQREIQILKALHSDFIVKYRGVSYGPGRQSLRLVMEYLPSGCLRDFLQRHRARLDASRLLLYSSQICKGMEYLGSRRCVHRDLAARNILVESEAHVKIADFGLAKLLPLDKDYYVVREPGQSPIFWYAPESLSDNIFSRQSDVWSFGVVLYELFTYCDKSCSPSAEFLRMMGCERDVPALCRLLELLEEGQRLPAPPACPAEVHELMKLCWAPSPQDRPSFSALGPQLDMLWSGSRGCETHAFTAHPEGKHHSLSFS

[10] = target: Fibroblast growth factor receptor 1 (Homo sapiens) (UniProt P11362); experiment: Inhibition of human FGFR1 cytoplasmic domain (398 to 822(end) residues) at 1 mM ATP relative to control
physchem [11] = conditions: octanol/water
Description: Lipophilicity, logD of the compound by shake flask assay

Cytochrome P450 3A4 = Cytochrome P450 3A4 (Homo sapiens, UniProt P08684); experiment: Inhibition of CYP3A4 (unknown origin) up to 25 uM; format: ADME
Cytochrome P450 3A4, sequence (P08684 whole entry): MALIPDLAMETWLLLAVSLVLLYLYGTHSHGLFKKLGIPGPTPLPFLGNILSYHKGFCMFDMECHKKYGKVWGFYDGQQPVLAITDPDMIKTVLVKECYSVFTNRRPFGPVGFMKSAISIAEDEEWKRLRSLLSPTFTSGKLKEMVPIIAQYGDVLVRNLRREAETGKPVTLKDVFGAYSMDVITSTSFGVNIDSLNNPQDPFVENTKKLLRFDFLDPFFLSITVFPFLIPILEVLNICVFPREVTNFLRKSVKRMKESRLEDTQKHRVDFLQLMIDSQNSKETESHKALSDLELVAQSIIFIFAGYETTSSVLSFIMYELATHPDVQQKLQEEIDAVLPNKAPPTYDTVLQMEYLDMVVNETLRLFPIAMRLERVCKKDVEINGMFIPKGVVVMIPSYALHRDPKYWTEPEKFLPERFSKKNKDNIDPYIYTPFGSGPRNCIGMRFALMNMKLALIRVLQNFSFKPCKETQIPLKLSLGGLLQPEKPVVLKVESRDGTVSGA

physchem [12] = conditions: PBS buffer, pH 7.4
Description: Aqueous solubility in PBS buffer at pH 7.4 by HPLC analysis

[13] = Apparent permeability in human Caco2 cells; format: ADME, cell-based; conditions: Caco-2
in vitro [14] = conditions: rat, liver microsomes
Description: Apparent intrinsic clearance in rat liver microsomes

[15] = Oral bioavailability in rat at […]; format: ADME, organism-based; conditions: in vivo
Cytochrome P450 2C19 = Cytochrome P450 2C19 (Homo sapiens, UniProt P33261); experiment: Inhibition of CYP2C19 (unknown origin) up to 25 uM; format: ADME
Cytochrome P450 2C19, sequence (P33261 whole entry): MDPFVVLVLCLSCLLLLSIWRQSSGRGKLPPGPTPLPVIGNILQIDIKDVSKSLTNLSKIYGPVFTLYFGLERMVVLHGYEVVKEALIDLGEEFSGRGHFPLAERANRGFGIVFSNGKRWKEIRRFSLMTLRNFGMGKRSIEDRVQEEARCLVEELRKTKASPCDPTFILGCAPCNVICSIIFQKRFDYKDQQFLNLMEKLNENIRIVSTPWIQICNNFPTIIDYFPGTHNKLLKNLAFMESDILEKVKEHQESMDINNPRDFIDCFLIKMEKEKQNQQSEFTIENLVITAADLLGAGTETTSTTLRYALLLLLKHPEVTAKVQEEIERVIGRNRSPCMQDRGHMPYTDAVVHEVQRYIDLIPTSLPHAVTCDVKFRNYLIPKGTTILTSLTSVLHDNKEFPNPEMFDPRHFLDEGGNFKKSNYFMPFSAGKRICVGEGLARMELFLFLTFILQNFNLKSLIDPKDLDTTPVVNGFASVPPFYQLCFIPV

[16] = Drug absorption in rat at […], po; format: ADME, organism-based; conditions: in vivo, read-out: Fabs
[17] = target: T1, Tyrosine-protein kinase JAK2; remark: listed apart in the source
Description: Inhibition of JAK2 in human STAT5-irf1-bla TF1 cells assessed as reduction in EPO-induced STAT5-signalling pre-incubated for 1 hrs before EPO addition and further incubated for 4 hrs fluorescence based assay

[18] = Terminal Phase volume of distribution […] in rat at […], po or 0.06 mg/kg, iv; format: ADME, organism-based; conditions: in vivo, read-out: Vbeta
Cytochrome P450 1A2 = target: T3, Cytochrome P450 1A2 (Homo sapiens, UniProt P05177); experiment: Inhibition of CYP1A2 (unknown origin) up to 25 uM; format: ADME
T3 sequence (P05177 whole entry): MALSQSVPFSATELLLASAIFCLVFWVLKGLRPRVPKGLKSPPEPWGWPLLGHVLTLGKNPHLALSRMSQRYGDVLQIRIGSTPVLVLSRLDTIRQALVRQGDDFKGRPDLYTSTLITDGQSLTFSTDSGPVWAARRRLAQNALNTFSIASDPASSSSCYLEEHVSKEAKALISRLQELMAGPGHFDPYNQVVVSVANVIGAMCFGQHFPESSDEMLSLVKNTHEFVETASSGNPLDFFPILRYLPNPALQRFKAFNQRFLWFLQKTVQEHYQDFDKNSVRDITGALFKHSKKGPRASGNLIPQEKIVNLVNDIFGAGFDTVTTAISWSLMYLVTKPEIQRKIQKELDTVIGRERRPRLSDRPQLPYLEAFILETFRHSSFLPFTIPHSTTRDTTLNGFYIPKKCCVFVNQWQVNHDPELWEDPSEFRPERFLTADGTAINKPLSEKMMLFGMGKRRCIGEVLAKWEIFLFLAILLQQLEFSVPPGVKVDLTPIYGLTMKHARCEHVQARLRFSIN

[19] = target: T4, Tyrosine-protein kinase JAK1 (Homo sapiens, UniProt P23458)
T4 sequence (P23458 whole entry): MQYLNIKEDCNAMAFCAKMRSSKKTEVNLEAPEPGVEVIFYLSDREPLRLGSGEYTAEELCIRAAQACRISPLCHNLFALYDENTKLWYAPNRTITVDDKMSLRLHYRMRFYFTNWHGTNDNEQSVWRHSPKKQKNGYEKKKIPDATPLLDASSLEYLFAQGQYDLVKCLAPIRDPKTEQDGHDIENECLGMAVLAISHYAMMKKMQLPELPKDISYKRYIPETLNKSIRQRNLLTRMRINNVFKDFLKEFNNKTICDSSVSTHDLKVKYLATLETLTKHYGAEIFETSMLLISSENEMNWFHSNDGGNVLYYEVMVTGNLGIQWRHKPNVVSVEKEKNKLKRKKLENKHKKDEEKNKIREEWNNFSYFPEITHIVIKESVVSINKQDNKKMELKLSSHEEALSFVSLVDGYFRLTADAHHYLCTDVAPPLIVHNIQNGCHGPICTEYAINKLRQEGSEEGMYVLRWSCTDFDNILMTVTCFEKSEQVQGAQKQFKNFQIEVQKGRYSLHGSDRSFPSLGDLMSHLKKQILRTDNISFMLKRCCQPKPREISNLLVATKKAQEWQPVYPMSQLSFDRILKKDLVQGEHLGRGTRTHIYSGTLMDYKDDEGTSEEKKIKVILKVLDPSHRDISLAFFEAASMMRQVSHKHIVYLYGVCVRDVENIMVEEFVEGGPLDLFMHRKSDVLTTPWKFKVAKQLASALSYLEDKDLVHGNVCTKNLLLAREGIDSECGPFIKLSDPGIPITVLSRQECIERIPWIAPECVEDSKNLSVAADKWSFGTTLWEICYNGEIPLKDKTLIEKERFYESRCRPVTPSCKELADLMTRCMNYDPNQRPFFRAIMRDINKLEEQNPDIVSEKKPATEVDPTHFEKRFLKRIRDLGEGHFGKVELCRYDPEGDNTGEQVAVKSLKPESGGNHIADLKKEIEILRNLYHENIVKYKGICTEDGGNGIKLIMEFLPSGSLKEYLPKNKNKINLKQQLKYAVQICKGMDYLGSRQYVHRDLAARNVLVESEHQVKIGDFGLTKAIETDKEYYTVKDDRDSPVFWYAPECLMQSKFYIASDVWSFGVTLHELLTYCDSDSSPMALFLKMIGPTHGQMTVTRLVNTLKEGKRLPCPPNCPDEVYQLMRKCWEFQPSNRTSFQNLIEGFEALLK

[20] = target: T4, Tyrosine-protein kinase JAK1; remark: listed apart in the source
Description: Inhibition of JAK1 in human STAT6-bla-RA1 cells assessed as reduction in IL4-induced STAT6-signalling pre-incubated for 1 hrs before human recombinant IL4 addition and further incubated for 4 hrs fluorescence based assay

Row | Compound | CLint scaled (in vitro [5]) | IC50 [6] | IC50 [8] | IC50 [9] | logD (physchem [11]) | solubility (physchem [12]) | IC50 [17] | IC50 [19] | IC50 [20] | further results
1 | Cc1[nH]nc2[nH]c(=O)cc([C@H]3CC[C@H](NC(=O)C4CC4)CC3)c12 | – | 2.8 µM | 2.1 µM | 7 µM | 1.2 | 22 µM (≈ 6.92 µg/mL) | > 14 µM | 0.22 µM | > 14 µM | –
2 | Cc1[nH]nc2[nH]c(=O)cc(C3CCCC3)c12 | – | 0.83 µM | 13 µM | 0.67 µM | 2.2 | 39 µM (≈ 8.47 µg/mL) | > 40 µM | 0.072 µM | 4.3 µM | –
3 | Cc1[nH]nc2[nH]c(=O)cc([C@H]3C[C@H]4CC[C@@H]3C4)c12 (racemic) | – | 0.43 µM | 0.43 µM | 0.24 µM | 2.8 | 64 µM (≈ 15.6 µg/mL) | 22 µM | 0.046 µM | 0.85 µM | –
4 | Cc1[nH]nc2[nH]c(=O)cc(C3CCCCC3)c12 | – | 0.67 µM | 1.3 µM | 0.55 µM | 2.8 | 4 µM (≈ 0.925 µg/mL) | > 40 µM | 0.13 µM | 3.7 µM | –
5 | Cc1[nH]nc2[nH]c(=O)c(CO)c(C3CCCCC3)c12 | – | 0.65 µM | 2.8 µM | 1.4 µM | 2.1 | 100 µM (≈ 26.1 µg/mL) | > 40 µM | 0.14 µM | 4.8 µM | –
6 | Cc1[nH]nc2[nH]c(=O)c(CCO)c(C3CCCCC3)c12 | – | 3.4 µM | 3.9 µM | 0.99 µM | 2.6 | 11 µM (≈ 3.03 µg/mL) | > 40 µM | 0.49 µM | 8.5 µM | –
7 | Cc1[nH]nc2[nH]c(=O)cc([C@H]3CC[C@H](NC(=O)[C@H]4CC4(F)F)CC3)c12 | – | 2.7 µM | 1.7 µM | 2.7 µM | 1.3 | 29 µM (≈ 10.2 µg/mL) | > 40 µM | 0.078 µM | > 40 µM | –
8 | Cc1[nH]nc2[nH]c(=O)cc([C@H]3C[C@H]4C[C@@H]3C[C@H]4CC#N)c12 | < 0.48 L/h/kg | 0.33 µM | 0.36 µM | 0.97 µM | 1.6 | 290 µM (≈ 81.9 µg/mL) | > 43 µM | – | – | –
9 | Cc1[nH]nc2[nH]c(=O)cc([C@H]3CC[C@H](NC(=O)[C@@H]4CC4(F)F)CC3)c12 | – | 0.22 µM | 0.12 µM | 0.48 µM | 1.3 | 43 µM (≈ 15.1 µg/mL) | > 7 µM | 0.0064 µM | 1.7 µM | –

Now those with a lower IC50 [9], led by results:

Row | CLint scaled (in vitro [5]) | IC50 [6] | IC50 [8] | IC50 [9] | logD (physchem [11]) | solubility (physchem [12]) | IC50 [17] | IC50 [19] | IC50 [20] | Compound | further results
10 | < 0.48 L/h/kg | 0.22 µM | 0.15 µM | 0.22 µM | 1.5 | > 92 µM | 24 µM | – | – | Cc1[nH]nc2[nH]c(=O)cc([C@@H]3C[C@@H]4C[C@H]3C[C@@H]4CC#N)c12 | –
11 | – | 0.15 µM | 0.38 µM | 0.18 µM | 2.7 | 33 µM (≈ 8.03 µg/mL) | > 40 µM | 0.044 µM | 1 µM | Cc1[nH]nc2[nH]c(=O)cc([C@@H]3C[C@H]4CC[C@@H]3C4)c12 (racemic) | –
12 | < 0.48 L/h/kg | – | 0.089 µM | 0.15 µM | 0.7 | 85 µM (≈ 31.2 µg/mL) | > 45 µM | 0.011 µM | 14 µM | Cc1[nH]nc2[nH]c(=O)cc([C@H]3CC[C@H](CC(=O)N4CCC(C#N)C4)CC3)c12 (mixture of isomers) | –
13 | – | 0.7 µM | 0.34 µM | 0.11 µM | 3 | 8 µM (≈ 1.96 µg/mL) | 8.9 µM | 0.04 µM | 1.3 µM | Cc1[nH]nc2[nH]c(=O)cc([C@H]3CCCC[C@H]3C)c12 (racemic) | –
14 | < 0.48 L/h/kg | – | 0.064 µM | 0.097 µM | 0.5 | 540 µM (≈ 191 µg/mL) | > 30 µM | 0.013 µM | > 30 µM | Cc1[nH]nc2[nH]c(=O)cc([C@H]3CC[C@H](CC(=O)N4CC(C#N)C4)CC3)c12 | –
15 | < 0.48 L/h/kg | 0.02 µM | 0.012 µM | 0.088 µM | 1.5 | 89 µM (≈ 25.1 µg/mL) | 2.8 µM | – | – | Cc1[nH]nc2[nH]c(=O)cc([C@H]3C[C@H]4C[C@@H]3C[C@@H]4CC#N)c12 | inhibition (INH) (Cytochrome P450 2C9): Not Active; half-life [1]: 18 min; fraction unbound [2]: 0.22; CLint scaled (in vitro [3]): 1.5 L/h/kg; clearance [4]: 3.18 L/h/kg; Activity [7]: Not Active; inhibition (INH) (Cytochrome P450 2D6): Not Active; inhibition [10]: 32%; inhibition (INH) (Cytochrome P450 3A4): Not Active; Papp [13]: 7 nm/s; CLint scaled (in vitro [14]): < 0.9 L/h/kg; bioavailability [15]: 14%; inhibition (INH) (Cytochrome P450 2C19): Not Active; Fa [16]: 41%; Vd [18]: 1.2 L/kg; inhibition (INH) (Cytochrome P450 1A2): Not Active
16 | 5.22 L/h/kg | – | – | 0.088 µM | 3 | 2.4 µM (≈ 1 µg/mL) | – | 0.003 µM | 0.25 µM | Cc1[nH]nc2[nH]c(=O)cc([C@H]3CC[C@H](CC(=O)N4CC(Cc5ccccc5)C4)CC3)c12 | –
17 | – | 0.22 µM | 0.33 µM | 0.065 µM | 3.3 | 8 µM (≈ 2.06 µg/mL) | 9.1 µM | 0.054 µM | 0.89 µM | Cc1[nH]nc2[nH]c(=O)cc(C3CC4CCC3CC4)c12 (racemic) | –
18 | 4.5 L/h/kg | – | 0.019 µM | 0.063 µM | 3 | – | 2.4 µM | 0.0021 µM | 0.11 µM | Cc1[nH]nc2[nH]c(=O)cc([C@H]3CC[C@H](CC(=O)N4CCC(c5ccccc5)C4)CC3)c12 (mixture of isomers) | –
19 | 4.2 L/h/kg | – | 0.032 µM | 0.057 µM | 2.9 | – | 3.4 µM | 0.0034 µM | 0.11 µM | Cc1[nH]nc2[nH]c(=O)cc([C@H]3CC[C@H](CC(=O)N4CCC(C)(C)CC4)CC3)c12 | –
